For twelve molecules, IC50 results are on record in patent publication US9598440B2, “Inhibitors of IRAK4 activity” (MERCK SHARP & DOHME CORP., priority 2012, dated 2017).

Sequence of IRAK4 (Q9NWZ3 whole entry): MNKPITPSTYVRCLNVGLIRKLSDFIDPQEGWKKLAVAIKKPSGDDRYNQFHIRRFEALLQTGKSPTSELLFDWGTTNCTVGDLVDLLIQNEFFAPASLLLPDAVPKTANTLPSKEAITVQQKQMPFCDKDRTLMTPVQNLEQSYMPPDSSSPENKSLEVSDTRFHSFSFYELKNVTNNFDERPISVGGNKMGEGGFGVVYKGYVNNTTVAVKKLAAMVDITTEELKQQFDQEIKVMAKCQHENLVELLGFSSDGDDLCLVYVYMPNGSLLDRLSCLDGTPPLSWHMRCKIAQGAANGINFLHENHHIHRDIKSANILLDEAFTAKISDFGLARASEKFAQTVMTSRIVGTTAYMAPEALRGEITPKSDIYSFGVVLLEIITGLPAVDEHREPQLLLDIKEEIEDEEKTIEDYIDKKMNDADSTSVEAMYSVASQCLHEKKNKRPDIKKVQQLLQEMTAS

This assay deals with IRAK4 (Homo sapiens (Human), UniProt Q9NWZ3). Nature of the assay: Determination of IRAK4 kinase activity (IMAP fluorescence polarization, phosphorylation of fluorescent peptide substrate). In kind it is biochemical. The note with it: 0.5 nM GST tagged IRAK4, 100 nM peptide substrate RP7030, 100 μM ATP, 30 minutes at 25° C. Summed up:
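GST-tagged IRAK4 (0.5 nM) phosphorylated 100 nM fluorescent peptide substrate with 100 µM ATP in Tris-HCl pH 7.2, 1 mM MgCl2, 1 mM DTT, 0.01% Tween 20 for 30 min at 25 °C. Phosphorylation read by IMAP nanoparticle binding as fluorescence polarization increase.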
For orientation: Fluorescence polarisation rises when a labelled molecule tumbles more slowly, as on binding a larger partner.
As usually defined, the IC50 is the midpoint of a concentration-inhibition curve. Regarding `COc1cc(Nc2ncc(-c3ccc4ccccc4n3)c(N[C@@H]3C[C@H](CO)[C@@H](O)[C@H]3OC)n2)ccn1` [Example 141, (1R,2S,3R,5R)-5-(hydroxymethyl)-2-methoxy-3-((2-((2-methoxypyridin-4-yl)amino)-5-(quinolin-2-yl)pyrimidin-4-yl)amino)cyclopentanol], the midpoint of inhibition, the IC50, lay at 33 nM. In other words, the double-digit nanomolar range.
Consider `CO[C@@H]1[C@H](O)[C@@H](CO)C[C@H]1Nc1nc(N)ncc1-c1nc2ccccc2s1` [Example 142, (1R,2S,3R,5R)-3-((2-amino-5-(benzo[d]thiazol-2-yl)pyrimidin-4-yl)amino)-5-(hydroxymethyl)-2-methoxycyclopentanol], for which the IC50 was determined as 68 nM.
The value for `COC[C@H]1C[C@@H](Nc2nc(Nc3ccnc(OC)c3)ncc2-c2nc3ccccc3s2)[C@H](O)[C@@H]1O` [Example 143, (1R,2S,3R,5R)-3-((5-(benzo[d]thiazol-2-yl)-2-((2-methoxypyridin-4-yl)amino)pyrimidin-4-yl)amino)-5-(methoxymethyl)cyclopentane-1,2-diol] was 95 nM; that for `Cc1cc(Nc2ncc(-c3nc4ccccc4s3)c(N[C@@H]3C[C@H](CF)[C@@H](O)[C@H]3O)n2)cc(C)n1` [Example 144, (1R,2S,3R,5S)-3-((5-benzo[d]thiazol-2-yl)-2-((2,6-dimethylpyridin-4-yl)amino-pyrimidin-4-yl)amino)-5-(fluoromethyl)cyclopentane-1,2-diol] was 3 nM.
The value for `Nc1ncc(-c2nc3ccccc3s2)c(N[C@@H]2C[C@H](CO)[C@@H](O)[C@@H]2F)n1` [Example 145, (1R,2R,3R,5R)-3-((2-amino-5-(benzo[d]thiazol-2-yl)pyrimidin-4-yl)amino)-2-fluoro-5-(hydroxymethyl)cyclopentanol] was 1330 nM; that for `C[C@H]1C[C@@H](Nc2nc(N)ncc2-c2nc3ccccc3s2)[C@H](O)[C@@H]1O` [Example 146, (1R,2S,3R,5S)-3-((2-amino-5-(benzo[d]thiazol-2-yl)pyrimidin-4-yl)amino)-5-methylcyclopentane-1,2-diol] was 290 nM; that for `COc1cc(Nc2ncc(-c3nc4ccccc4s3)c(N[C@@H]3C[C@H](C)[C@@H](O)[C@H]3O)n2)ccn1` [Example 147, (1R,2S,3R,5S)-3-((5-(benzo[d]thiazol-2-yl)-2-((2-methoxypyridin-4-yl)amino)pyrimidin-4-yl)amino)-5-methylcyclopentane-1,2-diol] was 132 nM.
The value for `COC(=O)[C@H]1C[C@@H](Nc2nc(Nc3cc(C)nc(C)c3)ncc2-c2nc3ccccc3s2)[C@H](OC)[C@@H]1O` [Example 148] was 2.1 nM.
For `CO[C@@H]1[C@H](O)[C@@H](C(C)(C)O)C[C@H]1Nc1nc(Nc2cc(C)nc(C)c2)ncc1-c1nc2ccccc2s1` [Example 149, (1R,2S,3R,5S)-3-((5-(benzo[d]thiazol-2-yl)-2-((2,6-dimethylpyridin-4-yl)amino)pyrimidin-4-yl)amino)-5-(2-hydroxypropan-2-yl)-2-methoxycyclopentanol], inhibition was half-maximal at 2.2 nM (IC50). The IC50 values of the last two molecules are within 1.5-fold of each other.
As for `Cc1nc(Nc2ccncc2)cc(N[C@@H]2C[C@H](CO)[C@@H](O)[C@H]2O)c1-c1nc2ccccc2s1` [Example 150, (1R,2S,3R,5R)-3-((3-(benzo[d]thiazol-2-yl)-2-methyl-6-(pyridin-4-ylamino)pyridin-4-yl)amino)-5-(hydroxymethyl)cyclopentane-1,2-diol], the IC50 amounted to 16000 nM.
The molecule `OC[C@H]1C[C@@H](Nc2cc(Nc3ccc(F)cc3)ncc2-c2nc3ccccc3s2)[C@H](O)[C@@H]1O` [Example 151, (1R,2S,3R,5R)-3-((5-(benzo[d]thiazol-2-yl)-2-((4-fluorophenyl)amino)pyridin-4-yl)amino)-5-(hydroxymethyl)cyclopentane-1,2-diol] registered a 50% inhibitory concentration (IC50) of 1140 nM.
Take `Nc1cc(N[C@@H]2C[C@H](CO)[C@@H](O)[C@H]2O)c(-c2nc3ccccc3s2)cn1` [Example 152, (1R,2S,3R,5R)-3-((2-amino-5-(benzo[d]thiazol-2-yl)pyridin-4-yl)amino)-5-(hydroxymethyl)cyclopentane-1,2-diol]: 113 nM corresponded to half-maximal inhibition (IC50).
